Results taken from patent publication US20230035479A1, “METHODS AND COMPOSITIONS FOR REDUCING HAIR GREYING” (President and Fellows of Harvard College, priority 2019, published 2023).
Where two headings read alike, the source gives them in different places.

Columns and labels:
[1] = tested on: melanocyte stem cells (MeSCs); test: MeSC numbers in hair follicles, TRP2 immunofluorescence or membrane GFP tracing; conditions: for MeSC preservation in RTX-injected animals: topical 5 mg/kg, until 48 hours post RTX injection, full anagen
Method: For RTX injection, mice received injections of RTX (30-100 μg/kg) in the flank for 1-3 days as described previously [15, 16, 51-56]. […] Control mice were treated with the vehicle only. RTX injection was done either in full anagen (P31-P36) or in 1st telogen (P21). […] Mice were treated for three days (P28-P30). […] RTX was given at Anagen VI (P31˜P36).

C57BL/6J mice = type: in vivo, mouse
[2] = tested on: melanocyte stem cells (MeSCs); test: MeSC proliferation, Phospho-Histone H3 immunofluorescence; conditions: for MeSC quiescence in RTX-injected animals: topical 5 mg/kg, until 48 hours post RTX injection
Method: For RTX injection, mice received injections of RTX (30-100 μg/kg) in the flank for 1-3 days as described previously [15, 16, 51-56]. […] Control mice were treated with the vehicle only. RTX injection was done either in full anagen (P31-P36) or in 1st telogen (P21). […] RTX was given at Anagen VI (P31˜P36).
All images were acquired using a Zeiss LSM 880 confocal microscope or Keyence microscope using ×20 or ×40 magnification lenses. Images are presented as Maximum Intensity Projection images. For colocalization analysis, images are presented as a single Z stack.

mature melanocytes = test: Differentiated/mature melanocytes and hair bulb cells, immunofluorescence; type: in vivo, mouse; conditions: full anagen; for proliferation of cells in the hair bulb: RTX-injected animals, topical CDK inhibitors
Method: Loss of hair pigmentation can be due to defects in melanin synthesis, loss of differentiated melanocytes, or problems in MeSC maintenance. To understand how stress impacts the melanocyte lineage, RTX was injected into mice in anagen, when both MeSCs and differentiated melanocytes were present but located within distinct compartments—MeSCs were near to the bulge while differentiated melanocytes were at the hair bulb (FIG. 1E). […] These differentiated melanocytes continued to generate pigments, and the hair coat remained black (FIGS. 6F-6G). When hair follicles in the RTX-injected animals entered catagen and telogen, many have lost all MeSCs (FIG. 1E, Telo). Subsequently, when the next round of anagen initiated, differentiated melanocytes were not produced to color new hair shafts, and unpigmented hairs emerged (FIG. 1E, 2nd Ana, FIG. 6H). […] In this case, unpigmented hairs appeared as soon as new hairs emerged in the following anagen (FIGS. 7A-7B). […] MeSCs were also lost or reduced in mice subjected to restraint stress or chronic unpredictable stress (FIG. 7C). Since stress depleted MeSCs, the loss of hair pigmentation in all three conditions was permanent (FIG. 7D).
Quiescence is a key feature of many somatic stem cells. Loss of quiescence has been postulated to cause MeSC loss in Bcl2 mutants. To examine if stress alters MeSCs quiescence, RTX or norepinephrine was injected into mice that had entered full anagen, when MeSCs are normally quiescent. A dramatic increase in the number of proliferating MeSCs was seen within 24 hours after RTX or norepinephrine injection—about 50% of MeSCs became positive for Phospho-Histone H3, an M phase marker (FIG. 4B). This number is in sharp contrast to the MeSC proliferation seen in early anagen (˜6%), the only stage when MeSCs proliferate to self-renew (FIG. 11E).
(§1) Mouse skin samples were fixed using 4% paraformaldehyde (PFA) for 15 minutes at room temperature, washed 6 times with PBS, and immersed in 30% sucrose overnight at 4° C. Samples were then embedded in OCT (Sakura Finetek). 35˜50 μm sections were fixed in 4% paraformaldehyde (PFA) for 2 minutes and washed with PBS and PBST. Slides were then blocked using blocking buffer (5% donkey serum; 1% BSA, 2% cold water fish gelatin in 0.3% Triton in PBS) for 1 hour at room temperature, followed by staining with primary antibodies overnight at 4° C. and secondary antibody for 4 hours at room temperature. For sympathetic nerve density quantification, 90 μm sections were used. EdU was developed for 1 hour using the Click-It reaction according to manufacturer instructions (Thermo Fisher Scientific). TUNEL assay was performed according to manufacturer instructions (Roche). Fontana—Masson staining was performed according to manufacturer instructions (Market Lab ML7255). Antibodies used: TRP2 (Santa Cruz 10451, 1:800), tyrosine hydroxylase (rabbit, Millipore AB152, 1:1000 or sheep, Millipore AB1542, 1:150-1:300), c-Fos (Abcam, 190289, 1:1000), γ-H2AX (Cell Signaling, 9718, 1:400), phospho-histone H3 (rabbit, Cell Signaling Technology 3377S, 1:500), cleaved caspase 3 (rabbit, Cell Signaling Technology 9664S, 1:400), GFP (rabbit, Abcam ab290, 1:1000 or chicken, Ayes labs GFP-1010, 1:200), CD3 (eBioscience 14-0032-81, 1:800), CD11b (eBioscience 14-0112-81, 1:800), Phospho-CREB (Cell Signaling 9198, 1:800), MITF (Abcam ab12039, 1:400).

Gq-DREADD = Gq-DREADD (Homo sapiens, UniProt P20309, A239G/Y149C); test: Sympathetic nerve activation with Gq-DREADD by intradermal CNO
Gq-DREADD, sequence (P20309 whole entry Y149C/A239G): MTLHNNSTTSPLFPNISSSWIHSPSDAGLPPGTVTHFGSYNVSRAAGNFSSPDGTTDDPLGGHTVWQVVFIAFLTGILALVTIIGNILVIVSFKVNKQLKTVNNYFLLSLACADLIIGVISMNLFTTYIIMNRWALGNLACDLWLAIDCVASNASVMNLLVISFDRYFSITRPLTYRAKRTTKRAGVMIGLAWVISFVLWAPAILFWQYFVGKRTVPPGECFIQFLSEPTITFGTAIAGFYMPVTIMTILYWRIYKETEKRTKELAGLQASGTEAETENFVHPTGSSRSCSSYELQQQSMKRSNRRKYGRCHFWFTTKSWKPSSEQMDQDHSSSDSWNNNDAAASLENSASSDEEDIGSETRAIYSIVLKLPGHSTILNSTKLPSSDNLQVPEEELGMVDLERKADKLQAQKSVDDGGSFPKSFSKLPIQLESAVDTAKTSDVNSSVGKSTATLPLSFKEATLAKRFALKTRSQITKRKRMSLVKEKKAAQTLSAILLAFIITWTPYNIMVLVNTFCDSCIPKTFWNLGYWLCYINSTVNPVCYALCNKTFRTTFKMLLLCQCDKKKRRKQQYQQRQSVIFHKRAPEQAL
From the text: To determine if sympathetic nerve activation in the absence of stress is sufficient to drive MeSC loss, a chemogenetic approach was taken using the Designer Receptor Exclusively Activated by Designer Drugs (DREADDs) system [3, 4]. Gq-DREADD is an artificial Gq-protein coupled receptor activated by the inert molecule Clozapine N-Oxide (CNO) but not by endogenous ligands. Activation of Gq-DREADD leads to intracellular calcium release and neuronal firing. TH-CreER; CAG-lsl-Gq-DREADD; Rosa-mT/mG mice were generated, which allowed for artificial activation of sympathetic nerves with CNO (FIG. 3D).
Control mice were treated with the vehicle only. […] For tamoxifen treatment, tamoxifen was diluted in corn oil to a final concentration of 20 mg/ml. To induce recombination, 20 mg/kg was injected intraperitoneally once per day for 4-7 days. For mosaic induction of Tyr-CreER and TH-CreER, 20 mg/kg tamoxifen was injected intraperitoneally once per day for 3 days. […] Control animals were injected with equivalent volume of vehicle (0.1% ascorbic acid in 0.9% sterile NaCl) with fluorescent beads. The injection sites were marked using water resistant ink. […] For Induction of Gq-DREADD, 50 μl CNO (1 mg/ml in 0.9% sterile saline) was injected intradermally into experimental animals together with fluorescent beads at full anagen (P31˜P36). Control animals were injected with equivalent volume of vehicle (0.9% sterile saline) together with fluorescent beads.
(§4) For intradermal injection experiments (NE or CNO), unpigmented hairs were quantified by plucking ˜100 hairs from each injection site (marked by water resistant ink at the time of injection), and the percentage of white hairs were calculated by dividing the number of white hairs by the total number of hairs plucked.

sympathetic neurons = test: c-FOS immunofluorescence in sympathetic ganglia; type: in vivo, mouse; conditions: TH-CreER; Gq-DREADD mice injected with CNO
human hair follicles = test: Cultured human hair follicles, pigmented bulge or outer root sheath cells; type: cell-based; conditions: 24 hours
Method: (§2) FIG. 14C provides quantification of the proportion of follicles that contain pigmented bulge or outer root sheath cells vs those lacking such pigmented cells outside of the bulb region. Human discarded hair bearing skin was cultured for 3 days with single hairs being isolated and grown in semi solid agarose William E medium with vehicle or norepinephrine (0.1 mM) for 24 hours. The cells were assessed after culture to identify those that were pigmented from those that were not. The presence of pigmented cells indicates senescence of melanocyte stem cells. Signal in vehicle control likely reflects the middle-age of the donor follicles.
Hair follicles from discarded scalp skin of […] was cultured for 3 days. Single hairs were isolated and grown in a semi agarose William E medium with vehicle, norepinephrine (NE) (0.1 mM), or NE (0.1 mM) +butoxamine (0.1 mM) (β2 blocker) for 24 hours. The graph indicates the proportion of follicles containing (or lacking) pigmented melanocytes (see arrows) in the bulge or outer root sheath locations, indicating melanocyte stem cell differentiation/senescence.

[3] = tested on: melanocyte stem cells (MeSCs); test: Corticosterone feeding in drinking water; conditions: corticosterone elevated via feeding, 35 μg/ml in drinking water, three days
Method: Since all stressors led to elevated corticosterone and norepinephrine in the blood, it was considered if these stress-induced circulating factors played a role in stress-induced MeSC loss.
Control mice were treated with the vehicle only. […] Mice were treated for three days (P28-P30).

[4] = tested on: primary human melanocytes; test: qRT-PCR in cultured primary human melanocytes treated with norepinephrine; type: cell-based
Method: (§3) Primary human melanocytes were derived from neonatal foreskin as previously described and cultured in Medium 254 (Invitrogen, Thermo Fisher Scientific). Melanocytes (passages 2 and 4) were starved for 24 hours in HAM's F-10 +1% penicillin/streptomycin/glutamine before adding NE (10 uM).
The cDNA libraries were synthesized using Superscript IV VILO master mix with ezDNase (Thermo Fisher). Quantitative real time PCR was performed using power SYBR green (Thermo Fisher) in an ABI QuantStudio6 Flex qPCR instrument. Ct values were normalized to an internal control of beta-actin.

CREB/ATF1 = CREB/ATF1 phosphorylation in human primary melanocytes; type: cell-based; conditions: 10 uM, after 15 minutes
Method: as §2, §3

[5] = tested on: melanocyte stem cells (MeSCs); test: Apoptosis (active caspase-3, TUNEL) and DNA damage (gamma-H2AX) in MeSCs; type: in vivo, mouse
Method: Radiation causes DNA damage in MeSCs, leading to their differentiation within the niche.
as §1

ADRB2 on MeSCs = ADRB2 on MeSCs (Mus musculus, UniProt P18762); test: Hair greying after intradermal norepinephrine injection
ADRB2 on MeSCs, sequence (P18762 whole entry): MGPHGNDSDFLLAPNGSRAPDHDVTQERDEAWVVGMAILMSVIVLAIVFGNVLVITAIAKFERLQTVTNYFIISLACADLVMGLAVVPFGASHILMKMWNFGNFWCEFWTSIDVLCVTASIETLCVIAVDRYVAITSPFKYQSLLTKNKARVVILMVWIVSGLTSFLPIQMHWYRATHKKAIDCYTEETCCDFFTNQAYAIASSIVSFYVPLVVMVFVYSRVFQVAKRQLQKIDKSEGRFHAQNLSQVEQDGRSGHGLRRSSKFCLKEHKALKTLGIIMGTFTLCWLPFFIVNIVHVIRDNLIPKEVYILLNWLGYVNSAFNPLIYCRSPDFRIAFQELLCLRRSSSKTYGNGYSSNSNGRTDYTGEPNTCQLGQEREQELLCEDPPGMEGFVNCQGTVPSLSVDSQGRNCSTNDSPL
Method: To test if elevated norepinephrine was sufficient to cause hair greying in the absence of stress, norepinephrine was introduced locally to the skin via intradermal injections.
For tamoxifen treatment, tamoxifen was diluted in corn oil to a final concentration of 20 mg/ml. To induce recombination, 20 mg/kg was injected intraperitoneally once per day for 4-7 days. […] 50 μm was injected intradermally into experimental animals together with fluorescent beads at full anagen (P31˜P36). Control animals were injected with equivalent volume of vehicle (0.1% ascorbic acid in 0.9% sterile NaCl) with fluorescent beads. The injection sites were marked using water resistant ink.
as §4

[6] = sympathetic nerve ablation, 100 mg/kg intraperitoneally daily P18 to P22
[7] = topical 5 mg/kg in ethanol, 48 h before to 48 h after RTX

## NCCc1cc(O)c(O)cc1O [6-OHDA, 6-hydroxy dopamine]
[1]; [6]
  effect on RTX-induced MeSC loss: blocked RTX-induced hair greying and MeSC loss
C57BL/6J mice; [6]
  effect on RTX-induced hair greying: blocked RTX-induced hair greying

## O=C(NC1CCNCC1)c1n[nH]cc1NC(=O)c1c(Cl)cccc1Cl [AT7519, N-(4-Piperidinyl)-4-(2,6-dichlorobenzoylamino)-1H-pyrazole-3-carboxamide]
[2]
  MeSC quiescence in RTX-injected animals: remained quiescent
Mature melanocytes
  proliferation of cells in the hair bulb: remained largely normal
[1]
  MeSC preservation in RTX-injected animals: preserved in the niche
C57BL/6J mice; [7]
  effect on RTX-induced hair greying: inhibits RTX-induced hair greying

## C[N+]1([O-])CCN(C2=Nc3cc(Cl)ccc3Nc3ccccc32)CC1 [CNO, Clozapine N-Oxide]
Gq-DREADD; TH-CreER, Gq-DREADD mice
  hair greying at CNO injection sites: led to loss of MeSCs and hair greying at the sites where CNO was injected
  loss of MeSCs at CNO injection sites: led to loss of MeSCs
Gq-DREADD; low dose of tamoxifen
  MeSC loss with mosaic TH-CreER activation: resulted in MeSC loss only in hair follicles innervated by DREADD-positive nerve fibres
Sympathetic neurons
  c-FOS activation in sympathetic ganglia: induced c-FOS activation in sympathetic ganglia

## CN1CC[C@H](c2c(O)cc(O)c3c(=O)cc(-c4ccccc4Cl)oc23)[C@H](O)C1 [Flavopiridol]
[2]
  MeSC quiescence in RTX-injected animals: remained quiescent
Mature melanocytes
  proliferation of cells in the hair bulb: remained largely normal
[1]
  MeSC preservation in RTX-injected animals: preserved in the niche
C57BL/6J mice; [7]
  effect on RTX-induced hair greying: inhibits RTX-induced hair greying

## COc1ccc(OC)c(C(O)C(C)NC(C)(C)C)c1 (centres unmarked) [butoxamine]
Human hair follicles; NE 0.1 mM + butoxamine 0.1 mM, follicles of person
  effect on norepinephrine-induced melanocyte pigmentation/senescence: prevents norepinephrine-induced melanocyte pigmentation/senescence

## C[C@]12C[C@H](O)[C@H]3[C@@H](CCC4=CC(=O)CC[C@@]43C)[C@@H]1CC[C@@H]2C(=O)CO [corticosterone]
[3]
  changes in MeSCs: no changes in MeSCs or hair pigmentation
  changes in hair pigmentation: no changes in MeSCs or hair pigmentation

## N=C(N)NCCN1CCCCCCC1 [guanethidine]
[1]; mouse, in vivo
  effect on MeSC loss upon RTX injection: suppressed hair greying and MeSC loss

## NC[C@H](O)c1ccc(O)c(O)c1 [norepinephrine]
[4]; cultured human melanocyte cells, NE 10 uM
  expression of proliferation and differentiation genes: rapid induction of proliferation genes like Cdk2, and differentiation genes like Mitf and Tyr
[4]; cultured primary human melanocytes
  expression of MITF and MITF target genes: induces MITF and multiple MITF target genes
Human hair follicles; norepinephrine 0.1 mM
  melanocyte stem cell pigmentation in human hair follicles: heavy norepinephrine-induced melanocyte stem cell pigmentation
[2]; within 24 hours after injection, full anagen
  MeSCs positive for Phospho-Histone H3: about 50%
Mature melanocytes; after injection
  proliferation or apoptosis in mature melanocytes: no changes in proliferation or apoptosis
CREB/ATF1
  phosphorylation/activation of CREB/ATF1: induces transient phosphorylation/activation of CREB/ATF1
[5]; before MeSC depletion from the niche, 1 day after injection
  active caspase-3 or TUNEL signals in MeSCs: failed to detect active caspase-3 or TUNEL signals
[5]; following injection
  gamma-H2AX foci (DNA damage) in MeSCs: failure to detect gamma-H2AX foci
ADRB2 on MeSCs; HFSC-specific adrb2 knockout mice
  hair greying at injection sites: promoted hair greying at the injection sites
ADRB2 on MeSCs; MeSC-specific adrb2 knockout mice
  hair greying at injection sites: failed to cause hair greying
ADRB2 on MeSCs; wild type mice, absence of stress
  hair greying at injection sites: promoted hair greying at the injection sites
